Test results from patent US11000033B2, “Ketone or oxime compound, and herbicide” (NISSAN CHEMICAL CORPORATION, priority 2014, dated 2021).

Columns and labels:
Format in all cases: in vivo
[1] = system: Echinochloa crus-galli var. crus-galli; assay: Test Example 4: herbicidal effect by soil treatment (symbol H); conditions: application herbicide amount 320 g/ha
Procedure, shortened: (§1)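 Seeds were sown in sterilized diluvial soil, covered with about 1.5 cm of soil, and the soil surface was sprayed with a water-diluted emulsion of the compound at a predetermined rate. Plants grew in a greenhouse at 25° C. to 30° C.; effects were scored visually 3 weeks after application.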

transplanted rice plant = assay: Test Example 1: effect on crop, application before weed generation in submerged conditions (symbol a); conditions: application herbicide amount 320 g/ha
Procedure, shortened: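 Alluvial soil pots flooded to 4 cm water, sown with Echinochloa oryzacola, Scirpus juncoides and Monochoria vaginalis, then transplanted with 2.5 leaf stage rice seedlings; pre-emergence application. Greenhouse 25° C. to 30° C.; scored 0–5 by herbicidal ratio 3 weeks after application.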

beet = assay: Test Example 4: effect on crop by soil treatment (symbol f); conditions: application herbicide amount 320 g/ha
Procedure, shortened: (§2)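 Steps: fill box with sterilized diluvial soil; sow seed spot-like; cover with ~1.5 cm soil; grow in greenhouse (25° C. to 30° C.).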

rice = assay: Test Example 4: effect on crop by soil treatment (symbol b); conditions: application herbicide amount 320 g/ha
Procedure, shortened: as §2

wheat = assay: Test Example 4: effect on crop by soil treatment (symbol e); conditions: application herbicide amount 320 g/ha
Procedure, shortened: as §2

Lolium multiflorum Lam. [2] = assay: Test Example 4: herbicidal effect by soil treatment (symbol K); conditions: application herbicide amount 320 g/ha
Procedure, shortened: as §1

Veronica persica = assay: Test Example 5: herbicidal effect by foliage application, plastic box (symbol R); conditions: 320 g/ha, 3 weeks after application
Procedure, shortened: (§3)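 After sowing into sterilized diluvial soil and growing two weeks under glass at 25° C. to 30° C., seedlings receive a uniform foliar spray of diluted emulsion. Damage is judged visually three weeks on.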

Digitaria ciliaris = assay: Test Example 5: herbicidal effect by foliage application, plastic box (symbol F); conditions: 320 g/ha, 3 weeks after application
Procedure, shortened: as §3

Abutilon theophrasti = assay: Test Example 4: herbicidal effect by soil treatment (symbol M); conditions: application herbicide amount 320 g/ha
Procedure, shortened: as §1

Lolium multiflorum Lam. [3] = assay: Test Example 5: herbicidal effect by foliage application, plastic box (symbol K); conditions: 320 g/ha, 3 weeks after application
Procedure, shortened: as §3

corn = assay: Test Example 5: effect on crop by foliage application, plastic box (symbol c); conditions: 320 g/ha, 3 weeks after application
Procedure, shortened: (§4)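 Diluvial soil, sterilized and boxed (21 × 13 × 7 cm), received spot-sown seed covered by about 1.5 cm soil; plants were then greenhouse-grown at 25–30° C.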

rapeseed = assay: Test Example 5: effect on crop by foliage application, plastic box (symbol g); conditions: 320 g/ha, 3 weeks after application
Procedure, shortened: as §4

Scirpus juncoides = assay: Test Example 2: herbicidal activity, application during weed generation in submerged conditions (symbol B); conditions: Table 23; application herbicide amount 320 g/ha; grade 0-5 by criteria of Test Example 1
Procedure, shortened: (§5)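 Flooded-soil post-emergence test: emulsion of compound, water-diluted to target rate, applied to paddy water surface at 1–2 leaf stage of mixed-sown weeds (alluvial soil, 4 cm water, 25–30° C. greenhouse); visual rating 3 weeks after application.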

Amaranthus retroflexus = assay: Test Example 5: herbicidal effect by foliage application, plastic box (symbol N); conditions: 320 g/ha, 3 weeks after application
Procedure, shortened: as §3

soybean [4] = assay: Test Example 5: effect on crop by foliage application, plastic box (symbol d); conditions: 320 g/ha, 3 weeks after application
Procedure, shortened: as §4

[5] = system: Echinochloa crus-galli var. crus-galli; assay: Test Example 5: herbicidal effect by foliage application, plastic box (symbol H); conditions: 320 g/ha, 3 weeks after application
Procedure, shortened: as §3

Avena fatua = assay: Test Example 4: herbicidal effect by soil treatment (symbol I); conditions: application herbicide amount 320 g/ha
Procedure, shortened: as §1

soybean [6] = assay: Test Example 4: effect on crop by soil treatment (symbol d); conditions: application herbicide amount 320 g/ha
Procedure, shortened: as §2

Monochoria vaginalis = assay: Test Example 2: herbicidal activity, application during weed generation in submerged conditions (symbol C); conditions: Table 23; application herbicide amount 320 g/ha; grade 0-5 by criteria of Test Example 1
Procedure, shortened: as §5

Row | SMILES | H (Echinochloa crus-galli var. crus-galli) herbicidal effect grade [1] | Effect grade on crop, a: transplanted rice plant (transplanted rice plant) | f (beet) effect on crop grade (beet) | b (directly sowed rice plant) effect on crop grade (rice) | e (wheat) effect on crop grade (wheat) | K (Lolium multiflorum Lam.) herbicidal effect grade (Lolium multiflorum Lam. [2]) | R: Veronica persica, herbicidal effect grade (Veronica persica) | F: Digitaria ciliaris, herbicidal effect grade (Digitaria ciliaris) | M (Abutilon theophrasti) herbicidal effect grade (Abutilon theophrasti) | K: Lolium multiflorum Lam., herbicidal effect grade (Lolium multiflorum Lam. [3]) | c: corn, effect on crop grade (corn) | g: rapeseed, effect on crop grade (rapeseed) | Herbicidal effect grade, B: Scirpus juncoides (Scirpus juncoides) | N: Amaranthus retroflexus, herbicidal effect grade (Amaranthus retroflexus) | d: soybean, effect on crop grade (soybean [4]) | H: Echinochloa crus-galli var. crus-galli, herbicidal effect grade [5] | I (Avena fatua) herbicidal effect grade (Avena fatua) | d (soybean) effect on crop grade (soybean [6]) | Herbicidal effect grade, C: Monochoria vaginalis (Monochoria vaginalis)
1 | CON=C(C)C(c1ccc(F)cc1)C1CC(O)=C(c2c(C)cc(C)cc2C)C1=O (stereo not shown) [1-049] | 0 (Herbicidal ratio of 5% or lower (almost no effect)) | 0 (Herbicidal ratio of 5% or lower (almost no effect)) | 0 (Herbicidal ratio of 5% or lower (almost no effect)) | 0 (Herbicidal ratio of 5% or lower (almost no effect)) | 0 (Herbicidal ratio of 5% or lower (almost no effect)) | 0 (Herbicidal ratio of 5% or lower (almost no effect)) | 0 (Herbicidal ratio of 5% or lower (almost no effect)) | 0 (Herbicidal ratio of 5% or lower (almost no effect)) | 0 (Herbicidal ratio of 5% or lower (almost no effect)) | 0 (Herbicidal ratio of 5% or lower (almost no effect)) | 0 (Herbicidal ratio of 5% or lower (almost no effect)) | 0 (Herbicidal ratio of 5% or lower (almost no effect)) | 0 (Herbicidal ratio of 5% or lower (almost no effect)) | 0 (Herbicidal ratio of 5% or lower (almost no effect)) | 0 (Herbicidal ratio of 5% or lower (almost no effect)) | 0 (Herbicidal ratio of 5% or lower (almost no effect)) | 0 (Herbicidal ratio of 5% or lower (almost no effect)) | 0 (Herbicidal ratio of 5% or lower (almost no effect)) | 0 (Herbicidal ratio of 5% or lower (almost no effect))
2 | CON=CCC1CC(O)=C(c2c(C)cc(C)cc2C)C1=O (stereo not shown) [1-050] | 4 (Herbicidal ratio of 70% or higher and lower than 90%) | 4 (Herbicidal ratio of 70% or higher and lower than 90%) | 0 (Herbicidal ratio of 5% or lower (almost no effect)) | 5 (Herbicidal ratio of 90% or more (almost completely withered)) | 0 (Herbicidal ratio of 5% or lower (almost no effect)) | 4 (Herbicidal ratio of 70% or higher and lower than 90%) | 0 (Herbicidal ratio of 5% or lower (almost no effect)) | 3 (Herbicidal ratio of 40% or higher and lower than 70%) | 1 (Herbicidal ratio of 5% or higher and lower than 20%) | 5 (Herbicidal ratio of 90% or more (almost completely withered)) | 0 (Herbicidal ratio of 5% or lower (almost no effect)) | 4 (Herbicidal ratio of 70% or higher and lower than 90%) | 0 (Herbicidal ratio of 5% or lower (almost no effect)) | 0 (Herbicidal ratio of 5% or lower (almost no effect)) | 0 (Herbicidal ratio of 5% or lower (almost no effect)) | 5 (Herbicidal ratio of 90% or more (almost completely withered)) | 0 (Herbicidal ratio of 5% or lower (almost no effect)) | 0 (Herbicidal ratio of 5% or lower (almost no effect)) | 0 (Herbicidal ratio of 5% or lower (almost no effect))
3 | CON=C(C)CC1CC(OC(=O)C(C)(C)Oc2ccc(Cl)cc2)=C(c2c(C)cc(C)cc2C)C1=O (stereo not shown) [1-051] | 5 (Herbicidal ratio of 90% or more (almost completely withered)) | 5 (Herbicidal ratio of 90% or more (almost completely withered)) | 0 (Herbicidal ratio of 5% or lower (almost no effect)) | 5 (Herbicidal ratio of 90% or more (almost completely withered)) | 2 (Herbicidal ratio of 20% or higher and lower than 40%) | 5 (Herbicidal ratio of 90% or more (almost completely withered)) | 0 (Herbicidal ratio of 5% or lower (almost no effect)) | 5 (Herbicidal ratio of 90% or more (almost completely withered)) | 5 (Herbicidal ratio of 90% or more (almost completely withered)) | 5 (Herbicidal ratio of 90% or more (almost completely withered)) | 5 (Herbicidal ratio of 90% or more (almost completely withered)) | 4 (Herbicidal ratio of 70% or higher and lower than 90%) | 5 (Herbicidal ratio of 90% or more (almost completely withered)) | 1 (Herbicidal ratio of 5% or higher and lower than 20%) | 4 (Herbicidal ratio of 70% or higher and lower than 90%) | 5 (Herbicidal ratio of 90% or more (almost completely withered)) | 3 (Herbicidal ratio of 40% or higher and lower than 70%) | 3 (Herbicidal ratio of 40% or higher and lower than 70%) | 3 (Herbicidal ratio of 40% or higher and lower than 70%)
4 | CC(CC1CC(O)=C(c2c(C)cc(C)cc2C)C1=O)=NOC(C)C (stereo not shown) [1-052] | 5 (Herbicidal ratio of 90% or more (almost completely withered)) | 5 (Herbicidal ratio of 90% or more (almost completely withered)) | 0 (Herbicidal ratio of 5% or lower (almost no effect)) | 5 (Herbicidal ratio of 90% or more (almost completely withered)) | 5 (Herbicidal ratio of 90% or more (almost completely withered)) | 5 (Herbicidal ratio of 90% or more (almost completely withered)) | 3 (Herbicidal ratio of 40% or higher and lower than 70%) | 5 (Herbicidal ratio of 90% or more (almost completely withered)) | 4 (Herbicidal ratio of 70% or higher and lower than 90%) | 5 (Herbicidal ratio of 90% or more (almost completely withered)) | 4 (Herbicidal ratio of 70% or higher and lower than 90%) | 4 (Herbicidal ratio of 70% or higher and lower than 90%) | 2 (Herbicidal ratio of 20% or higher and lower than 40%) | 0 (Herbicidal ratio of 5% or lower (almost no effect)) | 4 (Herbicidal ratio of 70% or higher and lower than 90%) | 5 (Herbicidal ratio of 90% or more (almost completely withered)) | 4 (Herbicidal ratio of 70% or higher and lower than 90%) | 0 (Herbicidal ratio of 5% or lower (almost no effect)) | 0 (Herbicidal ratio of 5% or lower (almost no effect))
